What all share (type): cell-based
For test [1], the system named is T47D cells. Briefly: Quantitative analysis of LC3B+ve puncta cells (autophagy) by immunofluorescent staining in 3D culture. Particulars: for autophagy (LC3B+ve puncta cells) with cytokine treatment: T47D in 3D culture, day 15, vs untreated T47D mono-culture. From the text: Observations made with the in vitro model system shown here are consistent with in vivo observations in bone in a preclinical model for studying breast cancer dormancy at metastatic sites. a & b, Quantitative analysis of cells positive for LC3B^+ve puncta in images of immunofluorescent staining of autophagic protein (LC3B), cytoplasm (Phalloidin), and DNA (Hoechst) of T47D and BT474 cells in 3D mono-culture or indirect co-culture (#) with different BM niche cells (hFOB or hMSC) analyzed. Induction of autophagy observed in the indirect co-culture condition for T47D or BT474 with hFOB at Day 10 & 15, but not in mono-culture of T47D or co-culture of T47D with hMSC cells. […] In the case of T47D #hMSC insert exchange to #hFOB, induction of autophagy was observed upon insert exchange with similar observations for BT474 cells in these co-cultures. Significant differences assessed by Student's two-sided t-test, where differences shown for comparison between time points in co-culture conditions (*p<0.05, **p<0.01; ***p<0.001). Data are shown represent mean±SD (n=3).
(§1) Significant differences assessed by ANOVA with Tukey's multiple comparisons test, where differences are shown for comparison between controls and multiple conditions at day 15 time point (*p<0.05, **p<0.01; ***p<0.001). Data are shown represent mean±SD (n=3).
Significant differences assessed by one-way ANOVA with Tukey's multiple comparisons test, where differences are shown for comparison between multiple time points (*p<0.05, **p<0.01; ***p<0.001). Data are shown represent mean±SD (n=3).

The test system of test [2] is T47D cells. Briefly: Quantitative analysis of viable cells (viability/growth) of BCCs in 3D mono-culture or indirect co-culture with hFOB. Particulars: T47D in 3D culture treated with recombinant human cytokines, vs untreated T47D mono-culture; day 15. The method, then: Significant differences were assessed by ANOVA with Tukey's multiple comparisons test, where differences are shown for comparison between controls and multiple conditions at day 15 time point (*p<0.05, **p<0.01; ***p<0.001). Data are shown represent mean±SD (n=3).

The subject of test [3] is T47D cells. Briefly: EdU proliferation assay in 3D mono-culture or indirect co-culture with hFOB. Particulars: T47D in 3D culture, day 15, vs untreated T47D mono-culture. The method, then: Indirect co-culture also enables facile switching to elucidate effects of transition from dormancy-promoting to growth-promoting microenvironments. Breast cancer cell proliferation assessment of over time culture with different conditions in 3D hydrogels: 5-ethynyl-2′-deoxyuridine (EdU) proliferation assay was measured for both T47D & BT474 cells at each time point during 15 days of culture. a & b, Quantification of proliferative (EdU^+ve) T47D & BT474 cells alone (control) or in indirect co-culture (#) with different BM niche cells (hFOB or hMSC). […] Significant differences assessed by Student's two-sided t-test, where differences shown for comparison between time points in mono and co-culture conditions (*p<0.05, **p<0.01; ***p<0.001). e, Quantitative analysis of metabolic activity with AlamarBlue assay of T47D cells after insert exchange at day 10 (fold change relative to day 3). Statistical differences determined with ANOVA with Tukey's multiple comparisons test, where differences are shown for comparison between co-culture conditions on day 15 and 20 (*p<0.05, **p<0.01; ***p<0.001). Data are shown represent mean±SD (n=3).
as §1

The record followed here is patent publication US20220356452A1, “INDIRECT THREE-DIMENSIONAL CO-CULTURE OF DORMANT TUMOR CELLS AND USES THEREOF” (University of Delaware, priority 2019, published 2022).

For `CCN(CCO)CCCC(C)Nc1ccnc2cc(Cl)ccc12` (stereo not shown) [HCQ, hydroxychloroquine, reference compound], the “autophagy (LC3B+ve puncta cells) with autophagy inhibitor” value in the test on T47D cells [1] (T47D #hFOB co-culture, 12.5 pg/mL, 2 doses (Day 6 and Day 14), observation over 25 days) is reported as “inhibition of autophagy”.

Turning to MCP1: recombinant human MCP1 cytokine, in the test on T47D cells [2], the “growth (viable cells) with cytokine treatment” value is reported as “significant growth inhibition”. In addition, the “proliferation rate (EdU+ve cells) with cytokine treatment” value in the test with T47D cells [3] was “significantly decreased the proliferation rate”. Besides, the “autophagy (LC3B+ve puncta cells) with cytokine treatment” value in the test with T47D cells [1] is reported as “induced autophagosome formation”.

Take TNFa: in the test on T47D cells [2], the “growth (viable cells) with cytokine treatment” value is “significant growth inhibition”. In addition, in the test on T47D cells [3], the “proliferation rate (EdU+ve cells) with cytokine treatment” value was “significantly decreased the proliferation rate”. In the test on T47D cells [1], the “autophagy (LC3B+ve puncta cells) with cytokine treatment” value is given as “induced autophagosome formation”.
